These results are taken from the PolyMetriX glass transition set.

On to `*C(=O)c1cc(C(=O)c2ccc3c(c2)C(=O)N(c2ccc(C(c4ccc(N5C(=O)c6ccc(*)cc6C5=O)cc4)(C(F)(F)F)C(F)(F)F)cc2)C3=O)cc(C(C)(C)C)c1` (repeat unit), for which the glass transition temperature came to 267.50 °C.

Turning to `*C(=O)c1cc2c(cc1Cl)C(=O)N(c1c(C)cc(C)c(N3C(=O)c4cc(*)c(Cl)cc4C3=O)c1C)C2=O` (repeat unit), the glass transition temperature stood at 371.00 °C.

Take `*C(=O)c1ccc2c(c1)C(=O)N(c1c(C)cc(C(c3cccc(C(F)(F)F)c3)c3cc(C)c(N4C(=O)c5ccc(*)cc5C4=O)c(C)c3)cc1C)C2=O` (repeat unit): the glass transition temperature was determined as 285.00 °C.

The compound `*C(=O)c1ccc2c(c1)C(=O)N(c1cc(-c3nc4ccccc4oc3=O)cc(N3C(=O)c4ccc(*)cc4C3=O)c1)C2=O` (repeat unit) showed a glass transition temperature of 95.00 °C.

`*C(=O)c1ccc2c(c1)C(=O)N(c1ccc(/C=C/c3ccc(N4C(=O)c5ccc(*)cc5C4=O)cc3)cc1)C2=O` (repeat unit) gave a glass transition temperature of 303.00 °C.

In turn, `*C(=O)c1ccc2c(c1)C(=O)N(c1ccc(C(=O)c3ccccc3N3C(=O)c4ccc(*)cc4C3=O)cc1)C2=O` (repeat unit) came in with a glass transition temperature of 289.00 °C.

Consider `*C(=O)c1ccc2c(c1)C(=O)N(c1ccc(C(c3ccc(N4C(=O)c5ccc(*)cc5C4=O)cc3)(C(F)(F)F)C(F)(F)F)cc1)C2=O` (repeat unit), for which the glass transition temperature came out at 308.03 °C.

In turn, `*C(=O)c1ccc2c(c1)C(=O)N(c1ccc(C(c3ccccc3)c3ccc(N4C(=O)c5ccc(*)cc5C4=O)cc3)cc1)C2=O` (repeat unit) displayed a glass transition temperature of 282.00 °C.

In turn, `*C(=O)c1cccc(C(=O)c2ccc3c(c2)C(=O)N(c2ccc(C(c4ccc(N5C(=O)c6ccc(*)cc6C5=O)cc4)(C(F)(F)F)C(F)(F)F)cc2)C3=O)c1` (repeat unit) gave a glass transition temperature of 262.50 °C.

On to `*CC/C(C)=C(/*)C` (repeat unit), for which the glass transition temperature came out at 4.00 °C.

The compound `*Oc1c(Br)cc(C(C)(C)c2cc(Br)c(OC(*)=O)c(Br)c2)cc1Br` (repeat unit) displayed a glass transition temperature of 228.50 °C.

In the case of `*Oc1c(C)cc(-c2cc(C)c(OC(=O)CCCCC(*)=O)c(C)c2)cc1C` (repeat unit), the glass transition temperature turned out to be 108.00 °C.

`*Oc1c(C)cc(-c2cc(C)c(OC(=O)CCCCCC(*)=O)c(C)c2)cc1C` (repeat unit) had a glass transition temperature of 96.00 °C.

Regarding `*Oc1c(C)cc(C(C)(C)c2cc(C)c(OC(=O)CCCCC(*)=O)c(C)c2)cc1C` (repeat unit), the glass transition temperature worked out at 93.00 °C.

`*Oc1c(C)cc(C(C)(C)c2cc(C)c(OC(=O)CCCCCC(*)=O)c(C)c2)cc1C` (repeat unit) showed a glass transition temperature of 84.00 °C.

As for `*Oc1c(C)cc(C(c2cc(C)c(OC(*)=O)c(C)c2)(C(F)(F)F)C(F)(F)F)cc1C` (repeat unit), the glass transition temperature was found to be 208.00 °C.

Take `*Oc1cc(Cl)c(C(C)(C)c2c(Cl)cc(OC(*)=O)cc2Cl)c(Cl)c1` (repeat unit): the glass transition temperature is 240.00 °C.

Compound `*Oc1ccc(S(=O)(=O)c2ccc(Oc3c(C(C)C)cc(C(C)(C)c4cc(C(C)C)c(*)c(C(C)C)c4)cc3C(C)C)cc2)cc1` (repeat unit) had a glass transition temperature of 175.00 °C.

`*c1c(C)cc(-c2cc(C)c(N3C(=O)c4ccc(Oc5ccc(C(C)(C)c6ccc(Oc7ccc8c(c7)C(=O)N(*)C8=O)cc6)cc5)cc4C3=O)c(C)c2)cc1C` (repeat unit) displayed a glass transition temperature of 280.00 °C.

As for `*c1c(C)cc(C(c2cc(C(F)(F)F)cc(C(F)(F)F)c2)c2cc(C)c(N3C(=O)c4ccc(Oc5ccc6c(c5)C(=O)N(*)C6=O)cc4C3=O)c(C)c2)cc1C` (repeat unit), the glass transition temperature turned out to be 281.90 °C.

On to `*c1c(C)cc(C)c(N2C(=O)c3ccc(-c4ccc5c(c4)C(=O)N(*)C5=O)cc3C2=O)c1C` (repeat unit), for which the glass transition temperature was 385.00 °C.

On to `*c1c(C)cc(C)c(N2C(=O)c3ccc(Oc4ccc(Oc5ccc6c(c5)C(=O)N(*)C6=O)cc4)cc3C2=O)c1C` (repeat unit), for which the glass transition temperature turned out to be 345.00 °C.

As for `*c1c(C)cc(C)c(N2C(=O)c3ccc(Sc4ccc5c(c4)C(=O)N(*)C5=O)cc3C2=O)c1C` (repeat unit), the glass transition temperature came to 378.00 °C.

With `*c1cc(-c2ccc(C(=C3C=C(C(C)(C)C)C(=O)C(C(C)(C)C)=C3)c3cc(C(C)(C)C)c(O)c(C(C)(C)C)c3)cc2)c(*)s1` (repeat unit), the glass transition temperature is -12.60 °C.

On to `*c1cc(-c2ccc(C(=C3C=C(C(C)(C)C)C(=O)C(C(C)(C)C)=C3)c3cc(C(C)(C)C)c(OC(C)=O)c(C(C)(C)C)c3)cc2)c(*)s1` (repeat unit), for which the glass transition temperature is -4.30 °C.

In turn, `*c1cc(-c2nc3ccccc3oc2=O)cc(-n2c(=O)c3cc4c(=O)n(*)c(=O)c4cc3c2=O)c1` (repeat unit) showed a glass transition temperature of 130.00 °C.

With `*c1cc(-c2sc(-c3cc(CCCCCCC)c(*)s3)cc2CCCCCCC)c2cccccc1-2` (repeat unit), the glass transition temperature was determined as 56.00 °C.

Regarding `*c1cc(-c2sc(-c3cc(CCCCCCCCCC)c(*)s3)cc2CCCCCCCCCC)c2cccccc1-2` (repeat unit), the glass transition temperature stood at 22.50 °C.

In the case of `*c1cc(-c2sc(-c3cc(CCCCCCCCCCCCCC)c(*)s3)cc2CCCCCCCCCCCCCC)c2cccccc1-2` (repeat unit), the glass transition temperature is -10.00 °C.

In turn, `*c1cc(/N=N/c2ccc(OC)cc2)cc(*)c1O` (repeat unit) came in with a glass transition temperature of 134.00 °C.

Regarding `*c1cc(Br)c(-c2c(Br)cc(N3C(=O)c4ccc(-c5ccc6c(c5)C(=O)N(*)C6=O)cc4C3=O)cc2C(=O)OCCCC)c(C(=O)OCCCC)c1` (repeat unit), the glass transition temperature worked out at 196.00 °C.

Compound `*c1cc(Br)c(-c2c(Br)cc(N3C(=O)c4ccc(-c5ccc6c(c5)C(=O)N(*)C6=O)cc4C3=O)cc2C(=O)OCCCCCCCC)c(C(=O)OCCCCCCCC)c1` (repeat unit) displayed a glass transition temperature of 135.50 °C.

`*c1cc(Br)c(-c2c(Br)cc(N3C(=O)c4ccc(-c5ccc6c(c5)C(=O)N(*)C6=O)cc4C3=O)cc2C(=O)OCCCCCCCCCC)c(C(=O)OCCCCCCCCCC)c1` (repeat unit) yielded a glass transition temperature of 116.00 °C.

In turn, `*c1cc(C(=O)NCCCCCCCCCCCC)cc(N2C(=O)c3ccc(-c4ccc5c(c4)C(=O)N(*)C5=O)cc3C2=O)c1` (repeat unit) had a glass transition temperature of 243.10 °C.

`*c1cc(C(=O)OC)cc(N2C(=O)CC(C3Cc4ccccc4C4C(=O)N(*)C(=O)C43)C2=O)c1` (repeat unit) had a glass transition temperature of 258.00 °C.

Consider `*c1cc(C(=O)OCCCC)cc(N2C(=O)CC(C3Cc4ccccc4C4C(=O)N(*)C(=O)C43)C2=O)c1` (repeat unit), for which the glass transition temperature came to 219.00 °C.

Consider `*c1cc(C(c2ccc(O)c(-n3c(=O)c4cc5c(=O)n(*)c(=O)c5cc4c3=O)c2)(C(F)(F)F)C(F)(F)F)ccc1O` (repeat unit), for which the glass transition temperature is 350.00 °C.

The compound `*c1cc(C)c(-c2c(C)cc(-n3c(=O)c4cc5c(=O)n(*)c(=O)c5cc4c3=O)cc2C)c(C)c1` (repeat unit) had a glass transition temperature of 353.00 °C.

As to `*c1cc(C)c(/N=C/c2ccc(OCc3ccccc3COc3ccc(/C=N/c4cc(C)c(N5C(=O)c6ccc7c8ccc9c%10c(ccc(c%11ccc(c6c7%11)C5=O)c%108)C(=O)N(*)C9=O)cc4C)cc3)cc2)cc1C` (repeat unit), the glass transition temperature worked out at 128.00 °C.

`*c1ccc(C(=O)Oc2c(C)cc(C(c3cccnc3)c3cc(C)c(OC(=O)c4ccc(N5C(=O)CC(Nc6ccc(NC7CC(=O)N(*)C7=O)cc6)C5=O)cc4)c(C)c3)cc2C)cc1` (repeat unit) yielded a glass transition temperature of 212.00 °C.

Regarding `*c1ccc(N2C(=O)c3ccc(C(=O)c4ccc5c(c4)C(=O)N(c4ccc(-c6nc7cc(S(=O)(=O)c8ccc9nc(-c%10ccccc%10)c(*)nc9c8)ccc7nc6-c6ccccc6)cc4)C5=O)cc3C2=O)cc1` (repeat unit), the glass transition temperature worked out at 240.00 °C.

For the compound `*c1ccc2c(c1)C(=O)N(c1c(C(C)C)cc(C(c3ccccc3)(c3cc(C(C)C)c(N4C(=O)c5ccc(C(*)(C(F)(F)F)C(F)(F)F)cc5C4=O)c(C(C)C)c3)C(F)(F)F)cc1C(C)C)C2=O` (repeat unit), the glass transition temperature turned out to be 274.00 °C.

`*c1ccc2c(c1)C(=O)N(c1c(C)cc(-c3cc(C)c(N4C(=O)c5ccc(C(*)(C(F)(F)F)C(F)(F)F)cc5C4=O)c(C)c3)cc1C)C2=O` (repeat unit) returned a glass transition temperature of 370.50 °C.

Regarding `*c1ccc2c(c1)C(=O)N(c1c(C)cc(C(c3cc(C(F)(F)F)cc(C(F)(F)F)c3)c3cc(C)c(N4C(=O)c5ccc(C(*)(C(F)(F)F)C(F)(F)F)cc5C4=O)c(C)c3)cc1C)C2=O` (repeat unit), the glass transition temperature turned out to be 288.00 °C.

`*c1ccc2c(c1)C(=O)N(c1c(C)cc(C)c(C(=O)c3cccc(N4C(=O)c5ccc(C(*)(C(F)(F)F)C(F)(F)F)cc5C4=O)c3)c1C)C2=O` (repeat unit): the glass transition temperature turned out to be 280.00 °C.

In turn, `*c1ccc2c(c1)C(=O)N(c1c(C)cc(Cc3cc(C)c(N4C(=O)c5ccc(C(*)(C(F)(F)F)C(F)(F)F)cc5C4=O)c(C(C)C)c3)cc1C(C)C)C2=O` (repeat unit) returned a glass transition temperature of 276.00 °C.

`*c1ccc2c(c1)C(=O)N(c1cc(C)c(-c3c(C)cc(N4C(=O)c5ccc(C(*)(C(F)(F)F)C(F)(F)F)cc5C4=O)cc3C)c(C)c1)C2=O` (repeat unit) yielded a glass transition temperature of 346.00 °C.

`*c1cccc(-c2cc(C(=O)Nc3ccc(OC(=O)c4cc(OCCCCCCCCCCCC)c(OCCCCCCCCCCCC)c(OCCCCCCCCCCCC)c4)cc3)cc(-c3cccc(N4C(=O)CC(C5C=C(C)C6C(=O)N(*)C(=O)C6C5)C4=O)c3)c2)c1` (repeat unit) came in with a glass transition temperature of 270.00 °C.

Consider `*c1cccc(-c2cc(C(=O)Nc3ccc(OC(=O)c4cc(OCCCCCCCCCCCC)c(OCCCCCCCCCCCC)c(OCCCCCCCCCCCC)c4)cc3)cc(-c3cccc(N4C(=O)c5ccc(S(=O)(=O)c6ccc7c(c6)C(=O)N(*)C7=O)cc5C4=O)c3)c2)c1` (repeat unit), for which the glass transition temperature is 268.00 °C.

The compound `*c1cccc(C(=O)c2c(C)cc(C)c(N3C(=O)c4ccc(-c5ccc6c(c5)C(=O)N(*)C6=O)cc4C3=O)c2C)c1` (repeat unit) came in with a glass transition temperature of 320.00 °C.
